Laboratory results reported in patent US20240158446A1, “CYCLIC COMPOUND HAVING SELECTIVE INHIBITORY ACTION ON KRAS OVER HRAS AND NRAS” (CHUGAI SEIYAKU KABUSHIKI KAISHA, priority 2021, published 2024).
Where a SMILES comes first, the peptide text is derived from it. Bridges are numbered along the chain shown (N, C = ends). [ ]: non-standard residue; d: D form. The star is where a group is joined. hPhe(3-Cl-4-CF3) = N[C@@H](CCc1ccc(C(F)(F)F)c(Cl)c1)C(=O)O; NPrPhe(4-CF3) = CCCN[C@@H](Cc1ccc(C(F)(F)F)cc1)C(=O)O; NMeGly(cPent) = CN[C@H](C(=O)O)C1CCCC1; Pro(4,4-F2) = O=C(O)[C@@H]1CC(F)(F)CN1; Hyp = O=C(O)[C@@H]1C[C@@H](O)CN1; NMeD = CN[C@@H](CC(=O)O)C(=O)O; NMeL = CN[C@@H](CC(C)C)C(=O)O; Morpholide = C1CN(*)CCO1; NMeA = CN[C@@H](C)C(=O)O; Ac5c = NC1(C(=O)O)CCCC1; Aze = O=C(O)[C@@H]1CCN1; Ac4c = NC1(C(=O)O)CCC1; NEtG = CCNCC(=O)O; Sar = CNCC(=O)O

Legend:
[1] = biological target: GDP-bound HRAS wild-type protein (Homo sapiens, UniProt P01112); experiment: Binding to HRAS by surface plasmon resonance (SPR), Single Cycle Kinetics; conditions: SPR, GDP-bound HRAS wild-type protein vs GDP-bound KRAS wild-type protein
GDP-bound HRAS wild-type protein, sequence (P01112 whole entry): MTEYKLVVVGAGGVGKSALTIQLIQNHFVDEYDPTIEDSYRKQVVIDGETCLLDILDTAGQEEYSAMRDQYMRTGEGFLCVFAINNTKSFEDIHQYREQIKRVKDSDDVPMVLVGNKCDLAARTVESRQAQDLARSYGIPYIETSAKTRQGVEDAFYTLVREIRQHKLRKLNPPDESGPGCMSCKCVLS

[2] = biological target: GDP-bound KRAS wild-type protein (Homo sapiens, UniProt P01116); experiment: Binding to KRAS by surface plasmon resonance (SPR), Single Cycle Kinetics; conditions: SPR Single Cycle Kinetics, GDP-bound KRAS wild-type protein, 1:1 binding model; read-out: KRAS KD
GDP-bound KRAS wild-type protein, sequence (P01116 whole entry): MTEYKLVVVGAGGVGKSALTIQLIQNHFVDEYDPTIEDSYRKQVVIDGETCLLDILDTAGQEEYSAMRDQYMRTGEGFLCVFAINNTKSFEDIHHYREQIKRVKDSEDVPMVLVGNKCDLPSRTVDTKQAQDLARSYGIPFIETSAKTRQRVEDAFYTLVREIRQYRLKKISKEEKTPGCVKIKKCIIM

[3] = biological target: GDP-bound NRAS wild-type protein (Homo sapiens, UniProt P01111); experiment: Binding to NRAS by surface plasmon resonance (SPR), Single Cycle Kinetics; conditions: SPR, GDP-bound NRAS wild-type protein vs GDP-bound KRAS wild-type protein
GDP-bound NRAS wild-type protein, sequence (P01111 whole entry): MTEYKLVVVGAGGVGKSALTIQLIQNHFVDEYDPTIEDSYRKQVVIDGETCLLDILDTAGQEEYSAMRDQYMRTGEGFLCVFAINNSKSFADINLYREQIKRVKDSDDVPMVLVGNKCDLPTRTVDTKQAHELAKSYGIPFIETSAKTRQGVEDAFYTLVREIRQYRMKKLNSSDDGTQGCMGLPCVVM

SMILES	HRAS/KRAS (ratio of KD value for HRAS to KD value for KRAS) [1]	Kd [2] [pM]	NRAS/KRAS (ratio of KD value for NRAS to KD value for KRAS) [3]	HRAS/KRAS (ratio of KD value with respect to HRAS to KD value with respect to KRAS) [1]	NRAS/KRAS (ratio of KD value with respect to NRAS to KD value with respect to KRAS) [3]
CCCN1C(=O)CN(C)C(=O)CN(CC)C(=O)[C@H]([C@@H](C)CC)NC(=O)[C@H](CC(C)C)N(C)C(=O)C[C@@H](C(=O)N2CCOCC2)N(C)C(=O)[C@H](C2CCCC2)N(C)C(=O)C2(CCC2)NC(=O)[C@@H]2CC(F)(F)CN2C(=O)[C@H](CCc2ccc(C(F)(F)F)c(Cl)c2)NC(=O)CN(C)C(=O)[C@@H]1Cc1ccc(C(F)(F)F)cc1 [PP0400] ([NMeL]I[NEtG][Sar][NPrPhe(4-CF3)][Sar][hPhe(3-Cl-4-CF3)][Pro(4,4-F2)][Ac4c][NMeGly(cPent)][NMeD]-Morpholide; lactam N-11)	B (a compound having 3 or more and less than 10 is denoted as B)	170	B (a compound having 3 or more and less than 10 is denoted as B)	–	–
CCCN1C(=O)CN(C)C(=O)CN(CC)C(=O)[C@H]([C@@H](C)CC)NC(=O)[C@H](CC(C)C)N(C)C(=O)C[C@@H](C(=O)N2CCOCC2)N(C)C(=O)[C@H](C2CCCC2)N(C)C(=O)C2(CCC2)NC(=O)[C@@H]2C[C@@H](OCC)CN2C(=O)[C@H](CCc2ccc(C(F)(F)F)c(Cl)c2)NC(=O)CN(C)C(=O)[C@@H]1Cc1ccc(C(F)(F)F)cc1 [PP0401] ([NMeL]I[NEtG][Sar][NPrPhe(4-CF3)][Sar][hPhe(3-Cl-4-CF3)][Hyp](Et)[Ac4c][NMeGly(cPent)][NMeD]-Morpholide; lactam N-11)	B (a compound having 3 or more and less than 10 is denoted as B)	150	B (a compound having 3 or more and less than 10 is denoted as B)	–	–
CCCN1C(=O)CN(C)C(=O)[C@@H]2CCN2C(=O)[C@H]([C@@H](C)CC)NC(=O)[C@H](CC(C)C)N(C)C(=O)C[C@@H](C(=O)N2CCOCC2)N(C)C(=O)[C@H](C2CCCC2)N(C)C(=O)C2(CCCC2)NC(=O)[C@@H]2CC(F)(F)CN2C(=O)[C@H](CCc2ccc(C(F)(F)F)c(Cl)c2)NC(=O)CN(C)C(=O)[C@@H]1Cc1ccc(C(F)(F)F)cc1 [PP0403] ([NMeL]I[Aze][Sar][NPrPhe(4-CF3)][Sar][hPhe(3-Cl-4-CF3)][Pro(4,4-F2)][Ac5c][NMeGly(cPent)][NMeD]-Morpholide; lactam N-11)	B (a compound having 3 or more and less than 10 is denoted as B)	830	B (a compound having 3 or more and less than 10 is denoted as B)	–	–
CCCN1C(=O)CN(C)C(=O)[C@@H]2CCN2C(=O)[C@H]([C@@H](C)CC)NC(=O)[C@H](CC(C)C)N(C)C(=O)C[C@@H](C(=O)N2CCOCC2)N(C)C(=O)[C@H](C2CCCC2)N(C)C(=O)C2(CCC2)NC(=O)[C@@H]2C[C@@H](OCC)CN2C(=O)[C@H](CCc2ccc(C(F)(F)F)c(Cl)c2)NC(=O)CN(C)C(=O)[C@@H]1Cc1ccc(C(F)(F)F)cc1 [PP0405] ([NMeL]I[Aze][Sar][NPrPhe(4-CF3)][Sar][hPhe(3-Cl-4-CF3)][Hyp](Et)[Ac4c][NMeGly(cPent)][NMeD]-Morpholide; lactam N-11)	C (A compound having a KD ratio of 0.1 or more and less than 3 is denoted as C)	310	B (a compound having 3 or more and less than 10 is denoted as B)	–	–
CCCN1C(=O)[C@@H]2CCN2C(=O)[C@H](C)N(C)C(=O)[C@H]([C@@H](C)CC)NC(=O)[C@H](CC(C)C)N(C)C(=O)C[C@@H](C(=O)N2CCOCC2)N(C)C(=O)[C@H](C2CCCC2)N(C)C(=O)C2(CCC2)NC(=O)[C@@H]2C[C@@H](OCC)CN2C(=O)[C@H](CCc2ccc(C(F)(F)F)c(Cl)c2)NC(=O)CN(C)C(=O)[C@@H]1Cc1ccc(C(F)(F)F)cc1 [PP0406] ([NMeL]I[NMeA][Aze][NPrPhe(4-CF3)][Sar][hPhe(3-Cl-4-CF3)][Hyp](Et)[Ac4c][NMeGly(cPent)][NMeD]-Morpholide; lactam N-11)	B (a compound having 3 or more and less than 10 is denoted as B)	42	C (A compound having a KD ratio of 0.1 or more and less than 3 is denoted as C)	–	–
CCCN1C(=O)[C@@H]2CCN2C(=O)CN(C)C(=O)[C@H]([C@@H](C)CC)NC(=O)[C@H](CC(C)C)N(C)C(=O)C[C@@H](C(=O)N2CCOCC2)N(C)C(=O)[C@H](C2CCCC2)N(C)C(=O)C2(CCCC2)NC(=O)[C@@H]2CC(F)(F)CN2C(=O)[C@H](CCc2ccc(C(F)(F)F)c(Cl)c2)NC(=O)CN(C)C(=O)[C@@H]1Cc1ccc(C(F)(F)F)cc1 [PP0408] ([NMeL]I[Sar][Aze][NPrPhe(4-CF3)][Sar][hPhe(3-Cl-4-CF3)][Pro(4,4-F2)][Ac5c][NMeGly(cPent)][NMeD]-Morpholide; lactam N-11)	B (a compound having 3 or more and less than 10 is denoted as B)	94	C (A compound having a KD ratio of 0.1 or more and less than 3 is denoted as C)	–	–
CCCN1C(=O)[C@@H]2CCN2C(=O)CN(C)C(=O)[C@H]([C@@H](C)CC)NC(=O)[C@H](CC(C)C)N(C)C(=O)C[C@@H](C(=O)N2CCOCC2)N(C)C(=O)[C@H](C2CCCC2)N(C)C(=O)C2(CCC2)NC(=O)[C@@H]2CC(F)(F)CN2C(=O)[C@H](CCc2ccc(C(F)(F)F)c(Cl)c2)NC(=O)CN(C)C(=O)[C@@H]1Cc1ccc(C(F)(F)F)cc1 [PP0409] ([NMeL]I[Sar][Aze][NPrPhe(4-CF3)][Sar][hPhe(3-Cl-4-CF3)][Pro(4,4-F2)][Ac4c][NMeGly(cPent)][NMeD]-Morpholide; lactam N-11)	–	56	–	C (A compound having a KD ratio of 0.1 or more and less than 3 is denoted as C)	C (A compound having a KD ratio of 0.1 or more and less than 3 is denoted as C)
CCCN1C(=O)[C@@H]2CCN2C(=O)CN(C)C(=O)[C@H]([C@@H](C)CC)NC(=O)[C@H](CC(C)C)N(C)C(=O)C[C@@H](C(=O)N2CCOCC2)N(C)C(=O)[C@H](C2CCCC2)N(C)C(=O)C2(CCCC2)NC(=O)[C@@H]2C[C@@H](OCC)CN2C(=O)[C@H](CCc2ccc(C(F)(F)F)c(Cl)c2)NC(=O)CN(C)C(=O)[C@@H]1Cc1ccc(C(F)(F)F)cc1 [PP0410] ([NMeL]I[Sar][Aze][NPrPhe(4-CF3)][Sar][hPhe(3-Cl-4-CF3)][Hyp](Et)[Ac5c][NMeGly(cPent)][NMeD]-Morpholide; lactam N-11)	–	58	–	B (a compound having 3 or more and less than 10 is denoted as B)	C (A compound having a KD ratio of 0.1 or more and less than 3 is denoted as C)
CCCN1C(=O)[C@@H]2CCN2C(=O)CN(C)C(=O)[C@H]([C@@H](C)CC)NC(=O)[C@H](CC(C)C)N(C)C(=O)C[C@@H](C(=O)N2CCOCC2)N(C)C(=O)[C@H](C2CCCC2)N(C)C(=O)C2(CCC2)NC(=O)[C@@H]2C[C@@H](OCC)CN2C(=O)[C@H](CCc2ccc(C(F)(F)F)c(Cl)c2)NC(=O)CN(C)C(=O)[C@@H]1Cc1ccc(C(F)(F)F)cc1 [PP0411] ([NMeL]I[Sar][Aze][NPrPhe(4-CF3)][Sar][hPhe(3-Cl-4-CF3)][Hyp](Et)[Ac4c][NMeGly(cPent)][NMeD]-Morpholide; lactam N-11)	–	46	–	C (A compound having a KD ratio of 0.1 or more and less than 3 is denoted as C)	C (A compound having a KD ratio of 0.1 or more and less than 3 is denoted as C)
CCCN1C(=O)CN(C)C(=O)CN(C)C(=O)[C@H]([C@@H](C)CC)NC(=O)[C@H](CC(C)C)N(C)C(=O)C[C@@H](C(=O)N(C)C)N(C)C(=O)[C@H](C2CCCC2)N(C)C(=O)C2(CCC2)NC(=O)[C@@H]2CCCN2C(=O)[C@H](CCc2ccc(C(F)(F)F)c(Cl)c2)NC(=O)CN(C)C(=O)[C@@H]1Cc1ccc(C(F)(F)F)cc1 [PP0412] ([NMeL]I[Sar][Sar][NPrPhe(4-CF3)][Sar][hPhe(3-Cl-4-CF3)]P[Ac4c][NMeGly(cPent)][NMeD]-NMe2; lactam N-11)	–	43	–	C (A compound having a KD ratio of 0.1 or more and less than 3 is denoted as C)	B (a compound having 3 or more and less than 10 is denoted as B)
CCCN1C(=O)CN(C)C(=O)CN(C)C(=O)[C@H]([C@@H](C)CC)NC(=O)[C@H](CC(C)C)N(C)C(=O)C[C@@H](C(=O)N(C)C)N(C)C(=O)[C@H](C2CCCC2)N(C)C(=O)C2(CCCC2)NC(=O)[C@@H]2CC(F)(F)CN2C(=O)[C@H](CCc2ccc(C(F)(F)F)c(Cl)c2)NC(=O)CN(C)C(=O)[C@@H]1Cc1ccc(C(F)(F)F)cc1 [PP0413] ([NMeL]I[Sar][Sar][NPrPhe(4-CF3)][Sar][hPhe(3-Cl-4-CF3)][Pro(4,4-F2)][Ac5c][NMeGly(cPent)][NMeD]-NMe2; lactam N-11)	–	49	–	C (A compound having a KD ratio of 0.1 or more and less than 3 is denoted as C)	C (A compound having a KD ratio of 0.1 or more and less than 3 is denoted as C)
CCCN1C(=O)CN(C)C(=O)CN(C)C(=O)[C@H]([C@@H](C)CC)NC(=O)[C@H](CC(C)C)N(C)C(=O)C[C@@H](C(=O)N(C)C)N(C)C(=O)[C@H](C2CCCC2)N(C)C(=O)C2(CCC2)NC(=O)[C@@H]2CC(F)(F)CN2C(=O)[C@H](CCc2ccc(C(F)(F)F)c(Cl)c2)NC(=O)CN(C)C(=O)[C@@H]1Cc1ccc(C(F)(F)F)cc1 [PP0414] ([NMeL]I[Sar][Sar][NPrPhe(4-CF3)][Sar][hPhe(3-Cl-4-CF3)][Pro(4,4-F2)][Ac4c][NMeGly(cPent)][NMeD]-NMe2; lactam N-11)	–	29	–	C (A compound having a KD ratio of 0.1 or more and less than 3 is denoted as C)	B (a compound having 3 or more and less than 10 is denoted as B)
